Results reported in patent US20190100555A1, “EYE-CARE PEPTIDE, ITS COMPOSITION AND METHOD OF USING THE SAME” (PRO SUNFUN BIOTECH RESEARCH AND DEVELOPMENT CO., LTD., priority 2017, published 2019).
Peptide text beside a SMILES is read from it.

Tested on: HCEC cells
Assay: MTT assay (cell viability)
Type: cell-based, Human
Procedure: Human corneal epithelial cell line, HCEC, was cultured in complete KSF containing keratinocyte-serum free medium, 5 ng/ml human recombinant EGF, 0.05 mg/ml bovine pituitary extract, 0.005 mg/ml insulin and 500 ng/ml hydrocortisone under 5% CO2 at 37° C.
Cells (2×10^4) in 1 ml complete KSF were seeded in 12-well plates with or without Peptide NO. 12. Seventy microliters of 5 mg/ml 3-(4,5-dimethyl-2-thiazolyl)-2,5-diphenyl-2H-tetrazolium bromide solution (MTT; Sigma) was added to each well for the indicated times and incubated at 37° C. for 3 hours, after which 700 μl 10% SDS in 0.01 N HCl was added to dissolve the MTT formazan crystals. The resultant optical density was measured spectrophotometrically at dual wavelengths, 550 and 630 nm.

CC(C)C[C@H](NC(=O)[C@@H]1CCCN1C(=O)[C@H](CC(N)=O)NC(=O)[C@@H](N)CCCNC(=N)N)C(=O)N[C@@H](CCC(=O)O)C(=O)N[C@@H](CCC(=O)O)C(=O)N[C@H](C(=O)O)[C@@H](C)O [Peptide NO. 12, ArgAsnProLeuGluGluThr] (H-RNPLEET-OH)
viability of HCEC cells (24 hours, 5, 10, 25 and 50 μg/ml): did not significantly affect viability
viability of HCEC cells (48 hours, 5, 10, 25 and 50 μg/ml): did not significantly affect viability
